In PMC12473123, “Structure–Function Insights into Quinuclidine-3-One BisQACs: Synthesis, Modulation of Bacterial Resistance, Structure–Activity Relationship, and Biological Profiling” (Pharmaceuticals, 2025):

Experiments:
Format in all cases: cell-based
[1] = tested on: Staphylococcus aureus ATCC 25923; assay: Broth microdilution MIC; conditions: for MIC: Staphylococcus aureus, ATCC25923, read-out: Minimum Inhibitory Concentrations (MIC)
[2] = tested on: Pseudomonas aeruginosa ATCC 27853; assay: Broth microdilution MIC; conditions: for MIC: Pseudomonas aeruginosa, ATCC27853, read-out: Minimum Inhibitory Concentrations (MIC)
[3] = tested on: Listeria monocytogenes ATCC 7644; assay: Time-resolved growth kinetics; conditions: MIC and ½ MIC
Procedure: The antimicrobial activity of the candidate compounds against Staphylococcus aureus ATCC 25923 and Listeria monocytogenes ATCC 7644 was further evaluated using a time-resolved growth kinetics assay in 96-well microtiter plates. Overnight bacterial cultures were diluted in fresh, pre-warmed Mueller–Hinton broth (MHB) and incubated at 37 °C with orbital shaking at 220 rpm. Upon reaching the exponential growth phase (OD600 = 0.3–0.5), cultures were standardized to a final concentration of 5 × 10^4 CFU/mL. Aliquots (50 µL) of the standardized inoculum were dispensed into wells containing either no antimicrobial agent (negative control) or the test compounds at concentrations corresponding to ½ MIC and MIC. Bacterial growth was continuously monitored over a 24 h period by measuring absorbance at 595 nm every 10 min using a Bio-Tek EL808 microplate reader (Winooski, VT, USA). Growth kinetics were assessed by comparing the optical density profiles of treated samples against the untreated control. Each experiment was performed independently twice, with all conditions tested in triplicate. Data are presented as the mean values of these replicates.

[4] = tested on: Listeria monocytogenes ATCC 7644; assay: Broth microdilution MIC; conditions: for MIC: Listeria monocytogenes, ATCC7644, read-out: Minimum Inhibitory Concentrations (MIC), Listeria monocytogenes ATCC 7644
[5] = tested on: Staphylococcus aureus Clinical/MRSA; assay: Broth microdilution MIC; conditions: Staphylococcus aureus, MRSA, read-out: Minimum Inhibitory Concentrations (MIC)
[6] = tested on: Escherichia coli ATCC 25922; assay: Broth microdilution MIC; conditions: Escherichia coli, ATCC25922, read-out: Minimum Inhibitory Concentrations (MIC)
[7] = tested on: Staphylococcus aureus ATCC 25923; assay: Time-kill kinetics assay
Procedure: To assess the temporal dynamics of bacterial viability upon exposure to the test compounds, a time-kill kinetics assay was performed using the Gram-positive reference strain Staphylococcus aureus ATCC 25923. An overnight culture of the strain was subcultured into fresh, pre-warmed Mueller–Hinton broth (MHB) and incubated under aerobic conditions at 37 °C with agitation (220 rpm) until reaching the early exponential growth phase. The bacterial suspension was then standardized to an initial concentration of approximately 5 × 10^5 CFU/mL. […] Wells containing untreated bacterial cultures served as growth controls. Immediately after mixing, a 10 µL sample from each well was withdrawn, diluted in 990 µL of MHB, and serially diluted tenfold up to 10^−6. From each dilution, 20 µL was plated on MHB agar using a sterile loop to determine the initial bacterial count (time zero). The treated plates were incubated at 37 °C, and additional samples were collected at predetermined time points (2, 4, 6, 8, 12, and 24 h) following the same dilution and plating protocol. After 24 h of incubation at 37 °C, colonies were counted, and viable bacterial counts were expressed as log10 CFU/mL for each time point. Bactericidal activity was evaluated by plotting the log10 CFU/mL over time, providing a dynamic profile of the compound’s killing kinetics.

[8] = tested on: Staphylococcus aureus ATCC 25923; assay: Biofilm inhibition assay (crystal violet)
Procedure: (§1) The ability of the candidate compounds to inhibit biofilm formation was evaluated by determining the minimum biofilm inhibitory concentration (MBIC) against the biofilm-forming strains Staphylococcus aureus ATCC 25923 and Listeria monocytogenes ATCC 7644. Overnight bacterial cultures were diluted in fresh, pre-warmed Mueller–Hinton broth (MHB) and incubated at 37 °C with constant shaking at 220 rpm. Once the cultures reached the exponential growth phase (OD600 = 0.3–0.5), they were standardized to a final concentration of 4 × 10^6 CFU/mL.
(§2) Plates were incubated at 37 °C for 24 to 48 h, depending on the bacterial strain. After incubation, the planktonic cells were carefully aspirated to preserve the integrity of the biofilm layer. Wells were gently rinsed with sterile ultrapure Milli-Q water and air-dried at 60 °C for 1 h to fix the biofilms. Biofilm formation was quantified using a crystal violet (CV) staining method. Wells were stained with 100 µL of 0.1% CV solution and incubated at room temperature for 1 h. Excess dye was removed by rinsing with sterile ultrapure Milli-Q water, followed by air-drying. Bound CV was solubilized with 100 µL of 70% ethanol and incubated for 30 min. The solubilized dye was transferred to a fresh plate, and absorbance was measured at 595 nm using a microplate reader (Bio-Tek EL808, Winooski, VT, USA). Absorbance values were directly proportional to biofilm biomass. Untreated bacterial cultures served as positive controls for biofilm formation, while sterile MHB served as the negative control.

[9] = tested on: Listeria monocytogenes ATCC 7644; assay: Biofilm inhibition assay (crystal violet); conditions: Listeria monocytogenes, ATCC7644, read-out: biofilm inhibition
Procedure: as §1
as §2, with “Aliquots (50 µL) of the standardized bacterial suspension were inoculated into 96-well microtiter plates containing the test compounds at final concentrations of 100, 50, 25, and 12.5 µg/mL. Plates” for “Plates”

[10] = S. aureus ATCC 25923, 6.25 µg/mL
[11] = S. aureus ATCC 25923, 12.5 µg/mL
[12] = S. aureus ATCC 25923, 100 µg/mL

For CCCCCCCCCCCCCCCCNC1C[N+]2(CCC[N+]34CCC(CC3)C(NCCCCCCCCCCCCCCCC)C4)CCC1CC2 (racemic) [2(QC16)3, (±)-1,1′-(Propane-1,3-diyl) bis(3-(hexadecylamino)quinuclidinium) dibromide], the MIC [1] was 38 µM, the MIC [2] was over 75 µM and the “effect on bacterial growth” value [3] was “pronounced inhibitory effect”. The MIC [4] was 9 µM, the MIC [5] was over 75 µM and the MIC [6] was over 75 µM. For the same molecule, the “time to rapid bactericidal activity” value ([7]; S. aureus ATCC 25923) was at most 3 h, the “time to complete killing” value ([7]; S. aureus ATCC 25923, 2 × MIC) was 2 h and the biofilm inhibition [8, 10] was over 2%. The biofilm inhibition [8, 11] was 11%, the biofilm inhibition ([8]; S. aureus ATCC 25923, 25 µg/mL) was over 80% and the biofilm inhibition ([8]; S. aureus ATCC 25923, 50 µg/mL) was “exceeding 90%”. The biofilm inhibition [8, 12] was “exceeding 90%”, the inhibition at 6.25 µg/mL [9] was 91% and the inhibition at 12.5 µg/mL [9] was 93%. It also gave an inhibition at 25 µg/mL [9] of 94%, an inhibition at 50 µg/mL [9] of 94% and an inhibition at 100 µg/mL [9] of 97%.

With CCCCCCCCCCCCCCCCNC1C[N+]2(CCCCCC[N+]34CCC(CC3)C(NCCCCCCCCCCCCCCCC)C4)CCC1CC2 (racemic) [2(QC16)6, (±)-1,1′-(Hexane-1,6-diyl) bis(3-(hexadecylamino)quinuclidinium) dibromide] the “Minimum Inhibitory Concentrations (MIC)” value ([1]; Staphylococcus aureus ATCC 25923) was 9 µM, the MIC [1] was 9 µM and the “Minimum Inhibitory Concentrations (MIC)” value ([2]; Pseudomonas aeruginosa ATCC 27853) was “largely inactive”. For the same molecule, the MIC [2] was over 75 µM, the “effect on bacterial growth” value [3] was “pronounced inhibitory effect” and the “Minimum Inhibitory Concentrations (MIC)” value ([4]; Listeria monocytogenes ATCC 7644) was 19 µM. The MIC [4] was 38 µM, the MIC [5] was 38 µM and the MIC [6] was 19 µM. For the same molecule, the “time to complete eradication / elimination of viable cells (CFU)” value ([7]; S. aureus ATCC 25923) was at most 2 h, the biofilm inhibition [8, 10] was 6% and the biofilm inhibition [8, 11] was over 30%. It also gave a biofilm inhibition ([8]; S. aureus ATCC 25923, 25 µg/mL) of over 80%, a biofilm inhibition ([8]; S. aureus ATCC 25923, 50 µg/mL) of over 90% and a biofilm inhibition [8, 12] of 95%. For the same molecule, the inhibition at 6.25 µg/mL [9] was 40%, the inhibition at 12.5 µg/mL [9] was 69% and the inhibition at 25 µg/mL [9] was 81%. The inhibition at 50 µg/mL [9] was 88% and the inhibition at 100 µg/mL [9] was 89%.
